Reference: patent US12234257B2, “Triterpene saponin derivative and use thereof” (KOREA INSTITUTE OF SCIENCE AND TECHNOLOGY, priority 2020, dated 2025)
Entries after “also recorded” stand apart in the source; their conditions may differ.

How the values were obtained:
SH-SY5Y cells = assay: MTT assay to measure cell viability; format: cell-based, human; conditions: 24 hours
Description: Cell viability was detected using an MTT assay kit (Z-Cytox). Briefly, the SH-SY5Y cells were seeded on a 96-well plate at a density of 2×10^4 cells/well with 100 μL of a culture medium. After 24 hours, the SH-SY5Y cells were treated with AKNS-2 and/or MPP^+ having desired concentrations to identify cytotoxicity of AKNS-2 and MPP^+. After 24 hours, 10 μL of the MTT reagent was added to each well of the 96-well plate including the cells. Absorbance was measured at 450 nm using a microplate spectrophotometer (BioTek, Vt., USA). […] The next day, absorbance was measured at 1 hour after adding the MTT reagent thereto.

[1] = test system: MPTP-induced in vivo PD model; assay: Pole test; design: species or system mice (C57BL/6j); conditions: MPTP mice, 2 hours
Description: In this study, all animal management and experimental protocols were performed in compliance with guidelines of the Institutional Animal Care and Use Committee of the Korea Institute of Science and Technology. 40 mice (C57BL/6j, male, 8 weeks old) were purchased from SLC Inc. (Shizuoka, Japan). After arrival, every four mice were hosed in each cage (30 cm×18.5 cm×13 cm) and allowed free access to feed and water. All mice were housed under the following constant conditions: lights on from 6:00 to 18:00, a temperature of 23° C.±1° C., and a humidity of 50%±10%. After 7 days of a habituation period, the mice were used in the experiments according to standard protocols. 40 mice were classified into five groups such that eight mice belonged to each group. After the habituation period, all mice were orally administered with a drug every day. […] Each mouse was administered with a single dose of saline/MPTP injection every day for 8 days. At 7 days after the final MPTP injection, all mice were sacrificed by cervical dislocation, and then the whole brain, SNpc, and striatum (ST) were excised for biochemical analysis. […] Each mouse was placed on the top of the pole with the head raised up, and a time taken for the mouse to turn and descend the pole was recorded up to 120 seconds with a stopwatch. […] An average time of three tests was calculated to evaluate motor function.

MAO-B = molecular target: T1, MAO-B (Mus musculus, UniProt Q8BW75); assay: Determination of MAO-B activity of ST and SN; format: in vivo, mice (C57BL/6j); conditions: both ST and SN; MPTP 30 mg/kg mice; 5 mg/kg and 15 mg/kg p.o.
T1 construct: a MAO-B substrate was added to a MAO-B enzyme-containing substance (ST and SN samples); from tissue; host or cells: mouse brain: striatum (ST) and substantia nigra (SN/SNpc) homogenate supernatant
T1 sequence (Q8BW75 1-520): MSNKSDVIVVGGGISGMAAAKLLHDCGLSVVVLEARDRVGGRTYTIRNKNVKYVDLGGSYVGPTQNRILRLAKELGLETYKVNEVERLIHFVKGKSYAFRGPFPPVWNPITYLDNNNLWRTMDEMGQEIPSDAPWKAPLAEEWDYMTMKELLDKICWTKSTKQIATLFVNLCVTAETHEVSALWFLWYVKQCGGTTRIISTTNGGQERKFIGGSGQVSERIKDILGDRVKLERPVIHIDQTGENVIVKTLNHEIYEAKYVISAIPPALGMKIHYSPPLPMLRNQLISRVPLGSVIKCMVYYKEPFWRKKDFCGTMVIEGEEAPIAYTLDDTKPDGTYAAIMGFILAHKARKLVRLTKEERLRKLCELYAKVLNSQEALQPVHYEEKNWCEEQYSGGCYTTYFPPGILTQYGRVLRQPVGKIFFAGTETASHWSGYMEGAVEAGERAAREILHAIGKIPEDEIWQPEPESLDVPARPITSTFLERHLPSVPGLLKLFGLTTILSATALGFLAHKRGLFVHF
Description: 40 mice were classified into five groups such that eight mice belonged to each group. After the habituation period, all mice were orally administered with a drug every day. While the mice of Groups 1 and 2 were administered with saline (p.o.), the mice of Groups 3, 4, and 5 were administered with 5 mg/kg ropinirole (p.o.), 5 mg/kg AKNS-2 (p.o.), and 15 mg/kg AKNS-2 (p.o.), respectively. From the 5th day therefrom, the mice of Group 1 were intraperitoneally administered with a saline at 1 hour after gavage feeding of saline, and the mice of Groups 2, 3, 4, and 5 were administered with 30 mg/kg MPTP (i.p.) at 1 hour after gavage feeding of saline, ropinirole, AKNS-2 (5 mg/kg), and AKNS-2 (15 mg/kg), respectively. […]
On the 7th day after the last administration of MPTP, SNpc and ST of each mouse were carefully excised and stored at −80° C. until use. […] A concentration of proteins contained in the supernatant was measured by the Bradford method. […]
A MAO-B assay kit of Promega Corporation (Woods Hollow Road, Madison, Wis., USA) was used to determine MAO-B activity of ST and SN according to the manufacturer's instructions. […] Luminescence signals were measured using an Infinite M1000 multimode microplate reader (TECAN, Männedorf, Switzerland). MAO-B activity was expressed as relative light unit (RLU)/mg protein).

SMILES	cell viability damaged by MPP^+ (MTT) (SH-SY5Y cells; AKNS-2 5 μM and 10 μM 1 hour before 2 mM MPP^+)	cytotoxicity (cell viability, MTT) (SH-SY5Y cells; AKNS-2 alone, up to 40 μM)	behavior performance in pole test ([1]; 5 mg/kg and 15 mg/kg p.o.)	activity of MAO-B increased by MPTP (MAO-B)	behavior performance in pole test ([1]; ropinirole (5 mg/kg p.o.))
C[C@@H]1O[C@@H](O[C@@H]2[C@@H](O)[C@H](O[C@@H]3[C@@H](O[C@@H]4OC[C@@H](O)[C@H](O)[C@H]4O)[C@@H](O)[C@H](O[C@H]4[C@H](OC(=O)[C@]56CCC(C)(C)C[C@H]5C5=CC[C@@H]7[C@@]8(C)C[C@H](O)[C@H](O[C@@H]9O[C@H](CO)[C@@H](O)[C@H](O[C@@H]%10OC[C@@H](O)[C@H](O)[C@H]%10O)[C@H]9O)[C@@](C)(CO)[C@@H]8CC[C@@]7(C)[C@]5(C)C[C@H]6O)OC[C@H](O)[C@@H]4O)O[C@H]3C)OC[C@H]2O)[C@H](O)[C@H](O)[C@H]1O [Compound 1, 3-O-β-D-xylopyranosyl-(1→3)-β-D-glucopyranosylpolygalacic acid 28-O-α-L-rhamnopyranosyl-(1→3)-β-D-xylopyranosyl-(1→4)-[β-D-xylopyranosyl-(1→3)]-α-L-rhamnopyranosyl-(1→2)-α-L-arabinopyranosyl ester]	significantly improved cell viability damaged by 2 mM MPP^+; also recorded: significantly enhanced cell viability that had decreased by MPP^+; also recorded: reversed the effects of MPP^+ on cell viability	did not significantly affect cytotoxicity	considerably restored	could not reduce the activity of MAO-B	–
CCCN(CCC)CCc1cccc2c1CC(=O)N2 [ropinirole, reference compound]	–	–	–	–	considerably restored
